“And” between values parts separate entries of the source, which are not always exact repeats. Identical values can stand only once. Results filed as inconclusive are left out.
Tested on: CD8F1 mice, subcutaneous mammary adenocarcinoma, T/C%
Assay: NCI In Vivo Anticancer Drug Screen. Data for tumor model Mammary Adenocarcinoma CD8F1 (subcutaneous) in CD8F1
Conditions: higher = larger tumour
Protocol: The antitumor activity of compounds was measured in mice bearing transplantable tumors. Survival or tumor size were measured and the results are expressed as the measurement made in the treated group (T) divided by the measurement made in the vehicle treated control group (C). The tumor model used in this assay is Mammary Adenocarcinoma CD8F1 (subcutaneous) in CD8F1

[1] = endpoint: mean tumor weight, dose: 1.5 mg/kg/injection, schedule: Q07DX006 (ip), vehicle: saline
[2] = endpoint: mean tumor weight, dose: 3.0 mg/kg/injection, schedule: Q07DX006 (ip), vehicle: saline
[3] = endpoint: mean tumor weight, dose: 0.5 mg/kg/injection, schedule: Q07DX006 (ip), vehicle: saline
[4] = endpoint: median tumor weight (est.), dose: 1.5 mg/kg/injection, schedule: Q07DX005 (ip), vehicle: saline
[5] = endpoint: median tumor weight (est.), dose: 3.0 mg/kg/injection, schedule: Q07DX005 (ip), vehicle: saline
[6] = endpoint: median tumor weight change, dose: 1.25 mg/kg/injection, schedule: Q01DX001 (ip), vehicle: water
[7] = endpoint: median tumor weight change, dose: 250.0 mg/kg/injection, schedule: Q01DX001 (ip), vehicle: saline

C1CN2CCC1CC2
T/C (endpoint: median tumor weight (est.), dose: 6.25 mg/kg/injection, schedule: Q07DX005 (ip), vehicle: saline with Tween-80): 111 % of control | T/C (endpoint: median tumor weight (est.), dose: 12.5 mg/kg/injection, schedule: Q07DX005 (ip), vehicle: saline with Tween-80): 77 % of control

CCOC(=O)c1ccc(NN=NCCF)cc1
T/C (endpoint: median tumor weight change, dose: 15.6 mg/kg/injection, schedule: Q01DX001 (ip), vehicle: distilled water + Tween-80): 80 % of control | T/C (endpoint: median tumor weight change, dose: 31.25 mg/kg/injection, schedule: Q01DX001 (ip), vehicle: distilled water + Tween-80): 65 % of control | T/C (endpoint: median tumor weight change, dose: 62.5 mg/kg/injection, schedule: Q01DX001 (ip), vehicle: distilled water + Tween-80): 114 % of control | T/C (endpoint: median tumor weight change, dose: 125.0 mg/kg/injection, schedule: Q01DX001 (ip), vehicle: distilled water + Tween-80): 56 % of control

COc1cccc2c1C(=O)c1c(O)c3c(c(O)c1C2=O)C[C@@](O)(/C(CO)=N/NC(=O)c1ccc(Cl)c(Cl)c1)C[C@@H]3OC1CC(N)C(O)C(C)O1 (some centres undefined)
T/C (endpoint: mean tumor weight, dose: 0.75 mg/kg/injection, schedule: Q07DX005 (ip), vehicle: saline): 106 % of control | T/C (endpoint: mean tumor weight, dose: 1.5 mg/kg/injection, schedule: Q07DX005 (ip), vehicle: saline): 161 % of control | T/C [1]: 118 % of control | T/C (endpoint: mean tumor weight, dose: 3.0 mg/kg/injection, schedule: Q07DX005 (ip), vehicle: saline): 75 % of control | T/C [2]: 71 % of control | T/C (endpoint: mean tumor weight, dose: 4.0 mg/kg/injection, schedule: Q07DX004 (ip), vehicle: saline): 86 % of control | T/C (endpoint: mean tumor weight, dose: 8.0 mg/kg/injection, schedule: Q07DX004 (ip), vehicle: saline): 96 % of control | T/C (endpoint: mean tumor weight, dose: 12.0 mg/kg/injection, schedule: Q07DX005 (ip), vehicle: saline): 30 % of control | T/C (endpoint: mean tumor weight, dose: 12.0 mg/kg/injection, schedule: Q07DX006 (ip), vehicle: saline): 32 % of control | T/C (endpoint: mean tumor weight, dose: 16.0 mg/kg/injection, schedule: Q07DX004 (ip), vehicle: saline): 17 % of control | T/C (endpoint: median tumor weight (est.), dose: 2.0 mg/kg/injection, schedule: Q07DX005 (ip), vehicle: suspension in saline): 60 % of control | T/C (endpoint: median tumor weight (est.), dose: 4.0 mg/kg/injection, schedule: Q07DX005 (ip), vehicle: suspension in saline): 150 % of control | T/C (endpoint: median tumor weight (est.), dose: 8.0 mg/kg/injection, schedule: Q07DX005 (ip), vehicle: suspension in saline): 41 % of control | T/C (endpoint: median tumor weight (est.), dose: 16.0 mg/kg/injection, schedule: Q07DX005 (ip), vehicle: suspension in saline): 25 % of control

COc1cccc2c1C(=O)c1c(O)c3c(c(O)c1C2=O)C[C@@](O)(C(=O)CO)C[C@@H]3OC1CC(N)C(O)C(C)O1 (some centres undefined)
T/C (endpoint: mean tumor weight, dose: 0.25 mg/kg/injection, schedule: Q01DX009 (ip), vehicle: saline): 38 % of control | T/C (endpoint: mean tumor weight, dose: 0.5 mg/kg/injection, schedule: Q01DX009 (ip), vehicle: saline): 17 % of control | T/C (endpoint: mean tumor weight, dose: 0.5 mg/kg/injection, schedule: Q07DX005 (ip), vehicle: saline): 85 % of control | T/C [3]: 45 % of control and 55 % of control and 66 % of control | T/C (endpoint: mean tumor weight, dose: 0.75 mg/kg/injection, schedule: Q07DX006 (ip), vehicle: saline): 46 % of control | T/C (endpoint: mean tumor weight, dose: 1.0 mg/kg/injection, schedule: Q01DX009 (ip), vehicle: saline): 2 % of control | T/C (endpoint: mean tumor weight, dose: 1.0 mg/kg/injection, schedule: Q07DX005 (ip), vehicle: saline): 89 % of control | T/C [1]: 42 % of control | T/C (endpoint: mean tumor weight, dose: 2.0 mg/kg/injection, schedule: Q07DX005 (ip), vehicle: saline): 40 % of control | T/C (endpoint: mean tumor weight, dose: 2.5 mg/kg/injection, schedule: Q07DX006 (ip), vehicle: saline): 6 % of control | T/C [2]: 3 % of control | T/C (endpoint: mean tumor weight, dose: 4.0 mg/kg/injection, schedule: Q07DX006 (ip), vehicle: saline): 1 % of control | T/C (endpoint: median tumor weight (est.), dose: 0.25 mg/kg/injection, schedule: Q07DX005 (ip), vehicle: saline): 208 % of control and 84 % of control | T/C (endpoint: median tumor weight (est.), dose: 0.37 mg/kg/injection, schedule: Q07DX005 (ip), vehicle: water): 84 % of control | T/C (endpoint: median tumor weight (est.), dose: 0.75 mg/kg/injection, schedule: Q07DX005 (ip), vehicle: saline): 62 % of control | T/C (endpoint: median tumor weight (est.), dose: 0.75 mg/kg/injection, schedule: Q07DX005 (ip), vehicle: water): 47 % of control | T/C (endpoint: median tumor weight (est.), dose: 1.25 mg/kg/injection, schedule: Q07DX005 (ip), vehicle: saline): 40 % of control | T/C [4]: 85 % of control | T/C (endpoint: median tumor weight (est.), dose: 1.5 mg/kg/injection, schedule: Q07DX005 (ip), vehicle: water): 81 % of control | T/C (endpoint: median tumor weight (est.), dose: 1.8 mg/kg/injection, schedule: Q07DX005 (ip), vehicle: saline): 77 % of control | T/C (endpoint: median tumor weight (est.), dose: 2.5 mg/kg/injection, schedule: Q07DX005 (ip), vehicle: saline): 14 % of control | T/C (endpoint: median tumor weight (est.), dose: 2.7 mg/kg/injection, schedule: Q07DX005 (ip), vehicle: saline): 51 % of control | T/C [5]: 29 % of control | T/C (endpoint: median tumor weight (est.), dose: 4.4 mg/kg/injection, schedule: Q01DX001 (ip), vehicle: saline): 37 % of control | T/C (endpoint: median tumor weight (est.), dose: 4.4 mg/kg/injection, schedule: Q07DX004 (ip), vehicle: saline): 11 % of control | T/C (endpoint: median tumor weight (est.), dose: 6.0 mg/kg/injection, schedule: Q07DX005 (ip), vehicle: saline): 30 % of control | T/C (endpoint: median tumor weight (est.), dose: 6.7 mg/kg/injection, schedule: Q01DX001 (ip), vehicle: saline): 28 % of control | T/C (endpoint: median tumor weight (est.), dose: 6.7 mg/kg/injection, schedule: Q07DX004 (ip), vehicle: saline): 5 % of control | T/C (endpoint: median tumor weight (est.), dose: 8.0 mg/kg/injection, schedule: Q07DX005 (ip), vehicle: water): 1 % of control | T/C (endpoint: median tumor weight (est.), dose: 10.0 mg/kg/injection, schedule: Q01DX001 (ip), vehicle: saline): 15 % of control | T/C (endpoint: median tumor weight (est.), dose: 15.0 mg/kg/injection, schedule: Q01DX001 (ip), vehicle: saline): 6 % of control | T/C [6]: 115 % of control | T/C (endpoint: median tumor weight change, dose: 2.5 mg/kg/injection, schedule: Q01DX001 (ip), vehicle: water): 81 % of control | T/C (endpoint: median tumor weight change, dose: 3.75 mg/kg/injection, schedule: Q01DX001 (ip), vehicle: saline): 96 % of control | T/C (endpoint: median tumor weight change, dose: 4.4 mg/kg/injection, schedule: Q01DX001 (ip), vehicle: water): 27 % of control | T/C (endpoint: median tumor weight change, dose: 5.0 mg/kg/injection, schedule: Q01DX001 (ip), vehicle: water): 18 % of control | T/C (endpoint: median tumor weight change, dose: 6.7 mg/kg/injection, schedule: Q01DX001 (ip), vehicle: water): -5 % of control | T/C (endpoint: median tumor weight change, dose: 7.5 mg/kg/injection, schedule: Q01DX001 (ip), vehicle: saline): 82 % of control | T/C (endpoint: median tumor weight change, dose: 15.0 mg/kg/injection, schedule: Q01DX001 (ip), vehicle: water): -49 % of control

CC1OC(OC2CC(O)(C(=O)CO)Cc3c(O)c4c(c(O)c32)C(=O)c2ccccc2C4=O)CC(N)C1O (centres undefined)
T/C (endpoint: mean tumor weight, dose: 0.12 mg/kg/injection, schedule: Q07DX006 (ip), vehicle: saline): 40 % of control | T/C [3]: 1 % of control | T/C (endpoint: median tumor weight change, dose: 0.31 mg/kg/injection, schedule: Q01DX001 (ip), vehicle: water): 67 % of control | T/C (endpoint: median tumor weight change, dose: 0.62 mg/kg/injection, schedule: Q01DX001 (ip), vehicle: water): 37 % of control | T/C [6]: 26 % of control and 28 % of control

NC1=NC(=O)N2CC12 (centres undefined)
T/C (endpoint: median tumor weight change, dose: 125.0 mg/kg/injection, schedule: Q01DX001 (ip), vehicle: saline): 115 % of control | T/C [7]: 122 % of control

CNC(=O)n1c(N)nc(-c2ccccc2)c1-c1ccccc1
T/C (endpoint: median tumor weight change, dose: 31.25 mg/kg/injection, schedule: Q01DX001 (ip), vehicle: saline with Tween-80): 93 % of control | T/C (endpoint: median tumor weight change, dose: 62.5 mg/kg/injection, schedule: Q01DX001 (ip), vehicle: saline with Tween-80): 92 % of control | T/C (endpoint: median tumor weight change, dose: 125.0 mg/kg/injection, schedule: Q01DX001 (ip), vehicle: saline with Tween-80): 79 % of control

O=C1C=C2C(=CCOC2O)O1 (centres undefined)
T/C (endpoint: median tumor weight (est.), dose: 0.5 mg/kg/injection, schedule: Q07DX005 (ip), vehicle: Klucel (hydroxypropylcellulose) (HPC)): 36 % of control | T/C (endpoint: median tumor weight (est.), dose: 1.0 mg/kg/injection, schedule: Q07DX005 (ip), vehicle: Klucel (hydroxypropylcellulose) (HPC)): 25 % of control | T/C [4]: 153 % of control | T/C (endpoint: median tumor weight (est.), dose: 2.0 mg/kg/injection, schedule: Q07DX005 (ip), vehicle: Klucel (hydroxypropylcellulose) (HPC)): 25 % of control | T/C [5]: 87 % of control | T/C (endpoint: median tumor weight (est.), dose: 4.0 mg/kg/injection, schedule: Q07DX005 (ip), vehicle: Klucel (hydroxypropylcellulose) (HPC)): 50 % of control | T/C (endpoint: median tumor weight change, dose: 5.0 mg/kg/injection, schedule: Q01DX001 (ip), vehicle: Klucel (hydroxypropylcellulose) (HPC)): 98 % of control

COc1cc2c(ccc3c4cc(OC)c(OC)cc4c[n+](C)c23)cc1O
T/C [7]: 190 % of control | T/C (endpoint: median tumor weight change, dose: 1000.0 mg/kg/injection, schedule: Q01DX001 (ip), vehicle: saline): 89 % of control | T/C (endpoint: median tumor weight change, dose: 2000.0 mg/kg/injection, schedule: Q01DX001 (ip), vehicle: saline): 121 % of control

From PubChem BioAssay AID220 (DTP/NCI, 2004)
